The subject of test [1] is TNFα production in LPS-stimulated human monocytes. As to the kind of experiment: Cot Monocyte TNFα Cell Based Assay. Particulars: for IC50/EC50 [nM]: EC50 (TNFα, monocytes): second value of the cell IC50/EC50, human monocytes, 50 pg/ml LPS, 4 hours. Put shortly: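 TNFα release quantified by two-antibody TR-FRET, normalised to unstimulated (0%) and LPS-stimulated (100%) wells. Cells got a 1 h compound exposure at 37° C in 0.5% DMSO before 4 h challenge with 50 pg/ml LPS, at 5,000 cells/well.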

Test [2] deals with T1, human Cot catalytic domain (30-397 amino acids) (Homo sapiens, UniProt P41279).
T1 construct: Purified recombinant human Cot catalytic domain (30-397 amino acids) was purchased from Cama Biosciences; purchased Cama Biosciences (so in the source)
T1 sequence (P41279 30-397): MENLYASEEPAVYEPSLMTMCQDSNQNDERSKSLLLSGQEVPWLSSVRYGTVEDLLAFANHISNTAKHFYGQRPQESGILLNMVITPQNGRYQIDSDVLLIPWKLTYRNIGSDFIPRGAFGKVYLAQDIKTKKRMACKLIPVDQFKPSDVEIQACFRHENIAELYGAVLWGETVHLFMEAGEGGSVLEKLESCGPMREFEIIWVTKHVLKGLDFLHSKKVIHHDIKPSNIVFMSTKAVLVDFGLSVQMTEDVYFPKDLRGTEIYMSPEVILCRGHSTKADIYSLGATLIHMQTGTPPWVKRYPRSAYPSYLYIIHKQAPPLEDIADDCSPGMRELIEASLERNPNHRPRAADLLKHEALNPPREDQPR
As to the kind of experiment: High Throughput Cot Biochemical Assay (KinEASE TR-FRET). Conditions: 400 μM ATP. Put shortly:
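TR-FRET (KinEASE) read-out: Eu-labelled phospho-specific antibody binds XL665-tagged STK3 peptide (1 μM) phosphorylated by 5 nM human Cot kinase domain (residues 30-397). Reaction at 400 μM ATP, pH 7.0 MOPS buffer with 10 mM MgOAc, 1 mM DTT and 0.1% DMSO.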
On the technique in general: Time-resolved FRET reads energy transfer from a long-lived donor to a nearby acceptor.

Test [3] concerns the target T2, Human EGFR, cytoplasmic domain [669-1210] (Homo sapiens, UniProt P00533).
T2 construct: purchased Cama Biosciences (so in the source)
Briefly: High Throughput EGFR Biochemical Assay (KinEASE TR-FRET). As for the experimental part:
Example 62: High Throughput EGFR Biochemical Assay
EGFR activity was measured using KinEASE (Cisbio), a time-resolved fluorescence resonance energy transfer (TR-FRET) immunoassay. In this assay, EGFR-catalyzes the phosphorylation of a universal Tyrosine kinase peptide substrate labeled with XL665. Europium conjugated phosphor-tyrosine specific antibody binds the resulting phosphorylated peptide. Formation of phosphorylated peptide is quantified by TR-FRET with Europium as the donor and XL665 the acceptor. The assay was performed in two main steps. The first step is the kinase reaction step and the second step is the detection step with TR-FRET reagents. In brief, test compounds 1:3 serially diluted in DMSO were delivered into Corning white, low volume, non-binding 384 well plates using the Echo 550 acoustic liquid dispenser (Labcyte®). […] After 60 min of incubation at room temperature, 10 μL of Stop and Detect Solution (1:400 Europium Cryptate labeled anti-phosphorylated peptide antibody solution and 125 nM strepavidin-XL665 Tracer in a 50 mM Hepes pH 7.0 detection buffer containing sufficient EDTA) was added.

Where two headings read alike, the source gives them in different places.

T2 sequence (P00533 669-1210): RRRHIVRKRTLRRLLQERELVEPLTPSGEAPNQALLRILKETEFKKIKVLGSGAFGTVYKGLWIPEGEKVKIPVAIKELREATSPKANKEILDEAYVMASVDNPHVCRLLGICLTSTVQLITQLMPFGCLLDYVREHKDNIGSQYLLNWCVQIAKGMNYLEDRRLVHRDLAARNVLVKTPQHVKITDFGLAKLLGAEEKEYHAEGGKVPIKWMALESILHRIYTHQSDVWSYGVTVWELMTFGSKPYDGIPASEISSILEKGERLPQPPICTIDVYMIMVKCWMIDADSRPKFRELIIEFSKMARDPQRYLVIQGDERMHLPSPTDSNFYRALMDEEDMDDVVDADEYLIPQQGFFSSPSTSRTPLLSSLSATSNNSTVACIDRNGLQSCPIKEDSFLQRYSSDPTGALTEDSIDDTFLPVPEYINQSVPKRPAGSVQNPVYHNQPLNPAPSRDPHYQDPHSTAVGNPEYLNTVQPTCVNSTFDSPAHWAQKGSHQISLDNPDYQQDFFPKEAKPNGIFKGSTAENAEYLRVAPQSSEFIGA

The term EC50 denotes the concentration at which the effect is half-maximal. By IC50 is commonly meant the point on the concentration scale where inhibition reaches its midpoint. As for `Cn1cc(C(Nc2cc(Cl)c3ncc(C#N)c(Nc4ccc(F)c(Cl)c4)c3c2)c2ccccc2)nn1` (stereo not shown) [Example 920, 8-chloro-4-((3-chloro-4-fluorophenyl)amino)-6-(((1-methyl-1H-1,2,3-triazol-4-yl)(phenyl)methyl)amino) quinoline-3-carbonitrile], in test [1] (Homo sapiens, Monocyte, LPS-stimulated human monocytes, TNFα TR-FRET, read-out: EC50 TNF), the EC50 stood at 215 nM. Also, in test [1], the “IC50/EC50 [nM]: EC50 (TNFα, monocytes)” value stood at 215 nM. Further, the 50% inhibitory concentration (IC50) in test [2] (Cot KinEASE TR-FRET, read-out: IC50 HTRF) was 10 nM; in test [3], more than 10000 nM.

Regarding `Cn1cc(CNc2cc(Cl)c3ncc(C#N)c(Nc4ccc(F)c(Cl)c4)c3c2)nn1` [Comparative Example 3, reference compound], the “IC50/EC50 [nM]: EC50 (TNFα, monocytes)” value in test [1] is on record as more than 10000 nM. Besides, the IC50 in test [2] (IC50/EC50 [nM]: IC50 (Cot), first value of the cell IC50/EC50, 5 nM Cot) is 67 nM; in test [3] it was more than 10000 nM.

The values above are taken from patent US10316017B2, “COT modulators and methods of use thereof” (Gilead Sciences, Inc., priority 2015, dated 2019).
